Where “and” joins values, the source holds several entries; their conditions need not be identical. Equal entries are not always repeated. Where two headings read alike, the source gives them in different places.
Assays:
[1] = test system: HCT 116 cells; test: Cytotoxicity assay, HCT 116 colon cancer cells; type: cell-based, human; settings: for inhibition at 10 µM / inhibition at 100 µM / IC50: Homo sapiens, HCT-116, 48 h; for inhibition at 10 µM / inhibition at 100 µM: read-out: percentage inhibition of HCT 116 cells; for SI (selectivity index): IC50 CRL 1790 / IC50 HCT 116
Text: (§1) Evaluation of the cytotoxic properties of the compounds presented in Table 1, Table 2, Table 3 and Table 4 was undertaken using the procedure outlined in [7]. In brief, the HCT 116 cells were obtained from the ATCC and cultured in McCoy’s 5A medium. The CRL 1790 cells were obtained from the ATCC and cultured in Minimum Essential Medium. The MCF-7 and MDA-MBA-231 cells were obtained from the Saskatchewan Cancer Agency and cultured in DMEM. In each assay the culture medium was supplemented with 10% fetal bovine serum and 1% penicillin–streptomycin antibiotics. The time of the bioassays was 48 h, unless indicated otherwise. All determinations were carried out in triplicate on three different occasions.

[2] = test system: MDA-MB-231 cells; test: Cytotoxicity assay, MDA-MB-231 breast cancer cells; type: cell-based, human; settings: Homo sapiens, MDA-MB-231, 48 h, read-out: percentage inhibition of MDA-MB-231 cells
Text: as §1

[3] = test system: MCF-7 cells; test: Cytotoxicity assay, MCF-7 breast cancer cells; type: cell-based, human; settings: Homo sapiens, MCF7, 48 h, read-out: percentage inhibition of MCF-7 cells
Text: as §1

[4] = test system: CRL 1790 cells; test: Cytotoxicity assay, non-malignant CRL 1790 colon cells; type: cell-based; settings: Homo sapiens, 48 h
Text: as §1

[5] = test system: HCT 116 cells; test: Chemosensitization of HCT 116 cells: 1m for 24 h, then 2a or 5-FU for a further 24 h; type: cell-based, human; settings: for Reduction in Live Cells % 2a (24 h): DMSO figure minus compound figure
Text: as §1
The next phase of the investigation was to determine whether a representative compound in series 1 chemosensitizes HCT 116 cells to a 3,5-bis(benzylidene)-4-piperidone 2a. […] The colon cancer cells were incubated for 24 h with 1m, and then 2a was added and the incubation was continued for a further 24 h. Different concentrations of both 1m and 2a were employed, and the results are presented as entries 1–12 in Table 3. In addition, the effects of each of 1m, 2a, and 5-FU on HCT 116 cells (which are necessary for the evaluation of whether chemosensitivity occurs) were recorded, and are presented as entries 13–20 in Table 3.
The concentration of 1m in combination 4 is 5 µM, which after 48 h causes a percentage reduction of live cells to 86% (DMSO figure after 48 h, line 20) minus 75% (48 h, line 13), or 11%.
The concentration of 2a in combination 4 is 0.2 µM. This combination leads to a reduction of the percentage of live cells to 91% (DMSO figure after 24 h, line 20) minus 69%, or 22%.
The percentage reduction in live cells caused by a combination of 1m (5 µM) and 2a (0.2 µM), in the absence of chemosensitization, is 11% plus 22%, or 33%.
However, the percentage reduction in cells as indicated on line 4 is 86% (DMSO figure after 48 h) minus 12% (line 4, 48 h figure), or 74%.

[6] = Table 4, read-out: IC50 CRL 1790
[7] = Table 4, read-out: IC50 HCT 116

melting point [°C]	Compound	inhibition at 10 µM [1] [%]	inhibition at 100 µM [1] [%]	inhibition at 10 µM [2] [%]	inhibition at 100 µM [2] [%]	inhibition at 10 µM [3] [%]	inhibition at 100 µM [3] [%]	further results
–	C=CC(=O)NNC(=O)c1ccc(F)cc1 [1b, N^2-Acryloyl-4-fluorobenzohydrazide]	-2.35 ± 2.24	60.7 ± 3.22	-7.37 ± 1.52	39.9 ± 2.51	-40.1 ± 3.34	33.2 ± 3.13	–
106 to 107	CCC(=O)NNC(=O)c1ccccc1 [6a, N^2-Propionylbenzohydrazide]	-10.5 ± 2.93	9.35 ± 2.53	-25.3 ± 1.82	-11.6 ± 2.52	-19.6 ± 3.66	-5.69 ± 2.54	IC50 ([4]; Table 2, read-out: Non-Malignant CRL 1790 Cells IC50): > 100 µM; IC50 ([1]; Table 2, read-out: Neoplastic Cells IC50, HCT 116): > 100 µM; SI (selectivity index) ([1]; Table 2): ~1.00
–	O=C1C(=Cc2ccccc2)CNCC1=Cc1ccccc1 [2a, 3,5-bis(benzylidene)-4-piperidone]	–	–	–	–	–	–	Reduction in Live Cells % 2a (24 h) ([5]; 2a 0.1 µM alone, 24 h): 8%; Reduction in Live Cells % 2a (24 h) ([5]; 2a 0.2 µM alone, 24 h): 22%; Reduction in Live Cells % 2a (24 h) ([5]; 2a 0.4 µM alone, 24 h): 43%; Live Cells % ([5]; entry 16: 2a 0.1 µM alone, 24 h): 83 ± 2.28%; Live Cells % ([5]; entry 16: 2a 0.1 µM alone, 48 h): 78 ± 2.12%; Live Cells % ([5]; entry 17: 2a 0.2 µM alone, 24 h): 69% and 69 ± 1.38%; Live Cells % ([5]; entry 17: 2a 0.2 µM alone, 48 h): 52 ± 1.15%; Live Cells % ([5]; entry 18: 2a 0.4 µM alone, 24 h): 48 ± 1.20%; Live Cells % ([5]; entry 18: 2a 0.4 µM alone, 48 h): 32 ± 1.50%; IC50 [4, 6]: 13.5 ± 1.99 µM; IC50 [1, 7]: 0.37 ± 0.06 µM; SI (selectivity index) ([1]; Table 4): 36.4
165 to 167	C=CC(=O)NNC(=O)c1ccccc1Cl [1e, N^2-Acryloyl-2-chlorobenzohydrazide]	4.3 ± 1.38	75.7 ± 1.65	-7.15 ± 2.29	91.9 ± 4.53	8.66 ± 1.81	75.8 ± 2.76	–
138 to 140	C=CC(=O)NNC(=O)c1cccc(C)c1 [1i, N^2-Acryloyl-3-methylbenzohydrazide]	15.4 ± 2.13	93.9 ± 3.35	-5.91 ± 3.86	53.3 ± 2.89	-82.8 ± 3.48	44.2 ± 2.96	–
155 to 158	C=CC(=O)NNC(=O)c1cccc(Cl)c1 [1f, N^2-Acryloyl-3-chlorobenzohydrazide]	13.5 ± 1.79	95.7 ± 1.71	15.6 ± 3.14	98.7 ± 0.92	-15.5 ± 3.38	85.9 ± 2.7	–
175 to 178	COc1ccc(C=C2CN(CCC(=O)NNC(=O)c3ccc(OC)c(OC)c3)CC(=Cc3ccc(OC)cc3)C2=O)cc1 [7f, 3,5-Bis(4-methoxybenzylidene)-1-[3-(3,4-dimethoxyphenylcarbonylaminoamino)-3-oxo-1-propyl]-4-piperidone]	–	–	–	–	–	–	IC50 [4, 6]: 11.1 ± 0.52 µM; IC50 [1, 7]: 2.87 ± 0.23 µM; SI (selectivity index) ([1]; Table 4): 3.86
171 to 172	CC(=O)NNC(=O)c1ccccc1 [6b, N^2-Acetylbenzohydrazide]	-4.89 ± 2.52	13.6 ± 3.03	-22.6 ± 2.65	-15.3 ± 3.46	-93.8 ± 4.15	-58.7 ± 3.24	–

— PMC8226474, “Design, Syntheses, and Bioevaluations of Some Novel N^2-Acryloylbenzohydrazides as Chemostimulants and Cytotoxic Agents” (Medicines, 2021)
